According to patent publication US12649733B2, “3,6-diamino-pyridazin-3-yl derivatives, pharmaceutical compositions containing them and their uses as pro-apoptotic agents” (LES LABORATOIRES SERVIER, priority 2019, dated 2026):

How the values were obtained:
MOLT-4 cells = assay: MOLT-4 cell viability, MTT assay; assay type: cell-based; conditions: Homo sapiens, MOLT-4, 48 h, 48 h exposure
Method in brief: (§1)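 Viability read by MTT reduction (OD 540 nm after overnight SDS/HCl lysis) after 48 h compound treatment of cells in RPMI 1640/10% FBS. Triplicates at nine concentrations, 3.16-fold apart; four-parameter curve fitting yields IC50.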

H146 cells = assay: H146 cell viability, MTT assay; assay type: cell-based; conditions: Homo sapiens, NCI-H146, 48 h, 48 h exposure
Method in brief: as §1

Bcl-xL protein = molecular target: T1, Bcl-xL protein (Homo sapiens, UniProt Q07817, N197C); assay: Fluorescence quenching assay (PUMA peptide displacement); assay type: binding; conditions: 1 nM protein, 400 nM peptide, 2 hours at 23° C.; KI determined from IC50
T1 construct: (2-197)[N197C]; His-His (two His8 stretches joined by a Gly/Ala/Ser/Thr linker)
Method in brief: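 Compounds were tested as an 11-point series in pH 7.4 HEPES/NaCl/Tween buffer with 5% DMSO, 2 h at 23 °C. Cy5-tagged Bcl-xL(2-197, N197C) at 1 nM and quencher-tagged PUMA peptide at 400 nM were used. Competitive binders restore fluorescence (620/680 nm), and IC50 values were converted to KI.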

T1 sequence (Q07817 2-197 N197C): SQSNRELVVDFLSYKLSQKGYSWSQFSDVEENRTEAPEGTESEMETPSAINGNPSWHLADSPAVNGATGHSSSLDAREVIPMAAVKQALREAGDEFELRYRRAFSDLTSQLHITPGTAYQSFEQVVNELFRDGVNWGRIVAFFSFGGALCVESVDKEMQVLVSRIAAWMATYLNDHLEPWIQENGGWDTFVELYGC

`Cc1cc(N(CCCCC[N+](C)(C)CCCO)c2nc(C(=O)[O-])c(CCCOc3ccc(C#CCN(C)C)cc3F)s2)nnc1Nc1nc2ccccc2s1` [Example 225, 2-[[6-(1,3-Benzothiazol-2-ylamino)-5-methyl-pyridazin-3-yl]-[5-[3-hydroxypropyl(dimethyl)ammonio]pentyl]amino]-5-[3-[4-[3-(dimethylamino)prop-1-ynyl]-2-fluoro-phenoxy]propyl]thiazole-4-carboxylate] gave an IC50 (MOLT-4 cells) of 1080 nM, an IC50 (H146 cells) of 351 nM and a Ki (Bcl-xL protein) of 0.0035 nM.
`CNCC#Cc1ccc(OCCCc2sc(N(CCCCC[N+](C)(C)CCO)c3cc(C)c(Nc4nc5ccccc5s4)nn3)nc2C(=O)[O-])c(F)c1` [Example 229, 2-[[6-(1,3-Benzothiazol-2-ylamino)-5-methyl-pyridazin-3-yl]-[5-[2-hydroxyethyl(dimethyl)ammonio]pentyl]amino]-5-[3-[2-fluoro-4-[3-(methylamino)prop-1-ynyl]phenoxy]propyl]thiazole-4-carboxylate] was tested, and the IC50 (MOLT-4 cells) was 1640 nM, the IC50 (H146 cells) was 437 nM and the Ki (Bcl-xL protein) was 0.0014 nM.
For `CNCC#Cc1ccc(OCCCc2sc(N(CCCCC[N+](C)(C)CCCO)c3cc(C)c(Nc4nc5ccccc5s4)nn3)nc2C(=O)[O-])c(F)c1` [Example 230, 2-[[6-(1,3-Benzothiazol-2-ylamino)-5-methyl-pyridazin-3-yl]-[5-[3-hydroxypropyl(dimethyl)ammonio]pentyl]amino]-5-[3-[2-fluoro-4-[3-(methylamino)prop-1-ynyl]phenoxy]propyl]thiazole-4-carboxylate], the IC50 (MOLT-4 cells) was 2180 nM, the IC50 (H146 cells) was 1380 nM and the Ki (Bcl-xL protein) was 0.0014 nM.
`CNCC#Cc1ccc(OCCCc2sc(N(CCCCC[N+](C)(C)CC(=O)O)c3cc(C)c(Nc4nc5ccccc5s4)nn3)nc2C(=O)[O-])c(F)c1` [Example 231, 2-[[6-(1,3-Benzothiazol-2-ylamino)-5-methyl-pyridazin-3-yl]-[5-[carboxymethyl(dimethyl)ammonio]pentyl]amino]-5-[3-[2-fluoro-4-[3-(methylamino)prop-1-ynyl]phenoxy]propyl]thiazole-4-carboxylate] gave an IC50 (MOLT-4 cells) of 1190 nM, an IC50 (H146 cells) of 1610 nM and a Ki (Bcl-xL protein) of 0.0013 nM.
`Cc1cc(N(C)c2nc(C(=O)O)c(CCCOc3ccc(C#CCN(C)C)cc3)s2)nnc1Nc1nc2ccccc2s1` [Example 233, 2-[[6-(1,3-Benzothiazol-2-ylamino)-5-methyl-pyridazin-3-yl]-methyl-amino]-5-[3-[4-[3-(dimethylamino)prop-1-ynyl]phenoxy]propyl]thiazole-4-carboxylic acid] gave an IC50 (MOLT-4 cells) of 0.879 nM, an IC50 (H146 cells) of 2.55 nM and a Ki (Bcl-xL protein) of 0.0043 nM.
`Cc1cc(N(C)c2nc(C(=O)O)c(CCCOc3ccc(C45CC(CN(C)C)(C4)C5)cc3)s2)nnc1Nc1nc2ccccc2s1` [Example 234, 2-[[6-(1,3-Benzothiazol-2-ylamino)-5-methyl-pyridazin-3-yl]-methyl-amino]-5-[3-[4-[1-[(dimethylamino)methyl]-3-bicyclo[1.1.1]pentanyl]phenoxy]propyl]thiazole-4-carboxylic acid] was tested, and the IC50 (MOLT-4 cells) was 3.8 nM, the IC50 (H146 cells) was 15 nM and the Ki (Bcl-xL protein) was 0.0016 nM.
With `CNCC#Cc1ccc(OCCCc2sc(N(CCC[N+](C)(C)CCCS(=O)(=O)[O-])c3cc(C)c(Nc4nc5ccccc5s4)nn3)nc2C(=O)O)c(F)c1` [Example 235, 3-[3-[[6-(1,3-Benzothiazol-2-ylamino)-5-methyl-pyridazin-3-yl]-[4-carboxy-5-[3-[2-fluoro-4-[3-(methylamino)prop-1-ynyl]phenoxy]propyl]thiazol-2-yl]amino]propyl-dimethyl-ammonio]propane-1-sulfonate] the IC50 (MOLT-4 cells) was 413 nM, the IC50 (H146 cells) was 413 nM and the Ki (Bcl-xL protein) was 0.0011 nM.
